Source: patent US20260285850A1, “SUBSTITUTED OXAZOLIDINONES AND IMIDAZOLINONES AS HERBICIDES” (FMC CORPORATION, priority 2023, published 2026)

How the values were obtained:
Format in all cases: in vivo
[1] = system: ducksalad (Heteranthera limosa); test: Test B flooded paddy test, visual plant response rating 0-100; details: 250 g ai/ha, Flood, applied to paddy water, evaluated after 13 days
How it was run: (§1)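 Each species was raised to two leaves before flooding to a 3 cm depth and dosing the water with compound. Injury was assessed by eye after 13 days under greenhouse conditions.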

[2] = system: sedge, umbrella (small-flower umbrella sedge, Cyperus difformis); test: as above; details: 250 g ai/ha, Flood, applied to paddy water, evaluated after 13 days
How it was run: as §1

[3] = system: barnyardgrass (Echinochloa crusgalli); test: as above; details: 250 g ai/ha, Flood, applied to paddy water, evaluated after 13 days
How it was run: as §1

rice (Oryza sativa) = test: as above; details: 250 g ai/ha, Flood, applied to paddy water, evaluated after 13 days
How it was run: as §1

[4] = system: green foxtail (Setaria viridis); test: Test A preemergence soil spray, visual injury rating 0-100; details: 10 days
How it was run: (§2)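 Preemergence directed soil spray or postemergence spray (2-10 cm, 1-2 leaf); loam/sand mix; compound in non-phytotoxic solvent + surfactant. Greenhouse, 10 d. Visual injury vs untreated, 0 = none, 100 = complete control.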

corn (Zea mays) [5] = test: as above; details: 10 days
How it was run: as §2

soybean (Glycine max) [6] = test: as above; details: 10 days
How it was run: as §2

kochia (Bassia scoparia) [7] = test: as above; details: 10 days
How it was run: as §2

[8] = system: oat, wild (wild oat, Avena fatua); test: as above; details: 10 days
How it was run: as §2

[9] = system: barnyardgrass (Echinochloa crus-galli); test: as above; details: 10 days
How it was run: as §2

[10] = system: ryegrass, Italian (italian ryegrass, Lolium multiflorum); test: as above; details: 10 days
How it was run: as §2

[11] = system: wheat (Triticum aestivum); test: as above; details: 10 days
How it was run: as §2

[12] = system: blackgrass (Alopecurus myosuroides); test: as above; details: 10 days
How it was run: as §2

[13] = system: ragweed (common ragweed, Ambrosia artemisiifolia); test: as above; details: 10 days
How it was run: as §2

[14] = system: green foxtail (Setaria viridis); test: Test A postemergence application, visual injury rating 0-100
How it was run: as §2

[15] = system: galium (catchweed bedstraw, Galium aparine); test: as above
How it was run: as §2

corn (Zea mays) [16] = test: as above
How it was run: as §2

soybean (Glycine max) [17] = test: as above
How it was run: as §2

kochia (Bassia scoparia) [18] = test: as above
How it was run: as §2

[19] = system: oat, wild (wild oat, Avena fatua); test: as above
How it was run: as §2

[20] = system: horseweed (Erigeron canadensis); test: as above
How it was run: as §2

[21] = system: barnyardgrass (Echinochloa crus-galli); test: as above
How it was run: as §2

[22] = system: ryegrass, Italian (italian ryegrass, Lolium multiflorum); test: as above
How it was run: as §2

[23] = system: wheat (Triticum aestivum); test: as above
How it was run: as §2

[24] = system: blackgrass (Alopecurus myosuroides); test: as above
How it was run: as §2

[25] = system: ragweed (common ragweed, Ambrosia artemisiifolia); test: as above
How it was run: as §2

[26] = system: palmer (palmer amaranth, palmer pigweed, Amaranthus palmeri); test: as above
How it was run: as §2

[27] = 62 g ai/ha, 0 = no effect, 100 = complete control
[28] = 62 g ai/ha, postemergence, 10 days, 0 = no effect, 100 = complete control
[29] = Postemergence, 16 g ai/ha, greenhouse 10 days, 0 no effect, 100 complete control

Structure (SMILES): CSCCOC(=O)C1=CCC(NC(=O)C2(C)CN(c3cc(F)cc(Cl)c3)C(=O)O2)C1 (centres unmarked) [Compound 135]
- Plant response rating, Ducksalad (0 to 100 scale, 0 is no effect and 100 is complete control) [1]: 65
- Plant response rating, Sedge, Umbrella (0 to 100 scale, 0 is no effect and 100 is complete control) [2]: 95
- Plant response rating, Barnyardgrass (0 to 100 scale, 0 is no effect and 100 is complete control) [3]: 90
- Plant response rating, Rice (0 to 100 scale, 0 is no effect and 100 is complete control) (rice (Oryza sativa)): 65
- Foxtail, Green plant response rating ([4]; 16 g ai/ha, 0 to 100 scale): 0
- Foxtail, Green plant response rating (0-100) [4, 27]: 80
- Corn plant response rating (corn (Zea mays) [5]; 16 g ai/ha, 0 to 100 scale): 0
- Corn plant response rating (0-100) (corn (Zea mays) [5]; [27]): 70
- Soybean plant response rating (soybean (Glycine max) [6]; 16 g ai/ha, 0 to 100 scale): 20
- Soybean plant response rating (0-100) (soybean (Glycine max) [6]; [27]): 20
- Kochia plant response rating (kochia (Bassia scoparia) [7]; 16 g ai/ha, 0 to 100 scale): 0
- Kochia plant response rating (0-100) (kochia (Bassia scoparia) [7]; [27]): 20
- Oat, Wild plant response rating ([8]; 16 g ai/ha, 0 to 100 scale): 20
- Oat, Wild plant response rating (0-100) [8, 27]: 30
- Barnyardgrass plant response rating ([9]; 16 g ai/ha, 0 to 100 scale): 20
- Barnyardgrass plant response rating (0-100) [9, 27]: 50
- Ryegrass, Italian plant response rating ([10]; 16 g ai/ha, 0 to 100 scale): 0
- Ryegrass, Italian plant response rating (0-100) [10, 27]: 90
- Wheat plant response rating ([11]; 16 g ai/ha, 0 to 100 scale): 10
- Wheat plant response rating (0-100) [11, 27]: 90
- Blackgrass plant response rating ([12]; 16 g ai/ha, 0 to 100 scale): 0
- Blackgrass plant response rating (0-100) [12, 27]: 20
- Ragweed plant response rating ([13]; 16 g ai/ha, 0 to 100 scale): 0
- Ragweed plant response rating (0-100) [13, 27]: 0
- Foxtail, Green plant response rating (0-100) [14, 28]: 90
- Foxtail, Green plant response rating (0 to 100 scale) [14, 29]: 90
- Galium plant response rating (0-100) [15, 28]: 80
- Galium plant response rating (0 to 100 scale) [15, 29]: 70
- Corn plant response rating (0-100) (corn (Zea mays) [16]; [28]): 100
- Corn plant response rating (0 to 100 scale) (corn (Zea mays) [16]; [29]): 100
- Soybean plant response rating (0-100) (soybean (Glycine max) [17]; [28]): 80
- Soybean plant response rating (0 to 100 scale) (soybean (Glycine max) [17]; [29]): 60
- Kochia plant response rating (0-100) (kochia (Bassia scoparia) [18]; [28]): 90
- Kochia plant response rating (0 to 100 scale) (kochia (Bassia scoparia) [18]; [29]): 90
- Oat, Wild plant response rating (0-100) [19, 28]: 90
- Oat, Wild plant response rating (0 to 100 scale) [19, 29]: 30
- Horseweed plant response rating (0-100) [20, 28]: 90
- Horseweed plant response rating (0 to 100 scale) [20, 29]: 70
- Barnyardgrass plant response rating (0-100) [21, 28]: 100
- Barnyardgrass plant response rating (0 to 100 scale) [21, 29]: 100
- Ryegrass, Italian plant response rating (0-100) [22, 28]: 90
- Ryegrass, Italian plant response rating (0 to 100 scale) [22, 29]: 40
- Wheat plant response rating (0-100) [23, 28]: 90
- Wheat plant response rating (0 to 100 scale) [23, 29]: 80
- Blackgrass plant response rating (0-100) [24, 28]: 100
- Blackgrass plant response rating (0 to 100 scale) [24, 29]: 90
- Ragweed plant response rating (0-100) [25, 28]: 70
- Ragweed plant response rating (0 to 100 scale) [25, 29]: 40
- Pigweed, Palmer plant response rating (0-100) [26, 28]: 90
- Pigweed, Palmer plant response rating (0 to 100 scale) [26, 29]: 70
